From ChEMBL document CHEMBL6103537 (J Med Chem, 2025)
The source made the active and inactive calls. The calls are words filed in the database; no cut-off is given here.

Columns and labels:
[1] = molecular target: T1, Signal transducer and activator of transcription 5B (Homo sapiens, UniProt P51692); test: Binding affinity to STAT5B (unknown origin) assessed as inhibition constant incubated for 1 hr by fluorescence polarization assay
T1 sequence (P51692 whole entry): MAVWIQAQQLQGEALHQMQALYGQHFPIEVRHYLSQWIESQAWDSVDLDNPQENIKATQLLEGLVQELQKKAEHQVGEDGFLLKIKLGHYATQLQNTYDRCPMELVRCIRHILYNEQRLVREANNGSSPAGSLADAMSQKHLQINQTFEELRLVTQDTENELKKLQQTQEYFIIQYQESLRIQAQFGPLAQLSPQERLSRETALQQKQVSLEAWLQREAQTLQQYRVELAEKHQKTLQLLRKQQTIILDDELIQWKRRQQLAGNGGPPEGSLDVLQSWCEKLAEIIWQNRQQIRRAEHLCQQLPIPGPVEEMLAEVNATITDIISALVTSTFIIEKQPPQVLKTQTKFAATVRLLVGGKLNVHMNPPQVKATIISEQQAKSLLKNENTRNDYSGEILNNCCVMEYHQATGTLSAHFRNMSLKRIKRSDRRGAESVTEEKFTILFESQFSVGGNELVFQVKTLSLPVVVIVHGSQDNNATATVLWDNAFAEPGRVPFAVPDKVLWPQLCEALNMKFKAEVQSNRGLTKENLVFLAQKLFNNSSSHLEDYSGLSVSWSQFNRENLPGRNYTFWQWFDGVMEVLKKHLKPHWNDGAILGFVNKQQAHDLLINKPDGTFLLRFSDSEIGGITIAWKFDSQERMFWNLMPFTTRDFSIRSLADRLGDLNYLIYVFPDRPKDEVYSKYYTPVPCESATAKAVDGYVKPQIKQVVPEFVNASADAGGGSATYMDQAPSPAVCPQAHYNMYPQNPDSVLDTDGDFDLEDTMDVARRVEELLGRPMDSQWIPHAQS

[2] = molecular target: T2, Signal transducer and activator of transcription 6 (Homo sapiens, UniProt P42226); test: Binding affinity to N-terminal his6-tgged STAT6 (unknown origin) (113 to 658 residues) assessed as inhibition constant incubated for 1 hr by fluorescence polarization assay
T2 sequence (P42226 whole entry): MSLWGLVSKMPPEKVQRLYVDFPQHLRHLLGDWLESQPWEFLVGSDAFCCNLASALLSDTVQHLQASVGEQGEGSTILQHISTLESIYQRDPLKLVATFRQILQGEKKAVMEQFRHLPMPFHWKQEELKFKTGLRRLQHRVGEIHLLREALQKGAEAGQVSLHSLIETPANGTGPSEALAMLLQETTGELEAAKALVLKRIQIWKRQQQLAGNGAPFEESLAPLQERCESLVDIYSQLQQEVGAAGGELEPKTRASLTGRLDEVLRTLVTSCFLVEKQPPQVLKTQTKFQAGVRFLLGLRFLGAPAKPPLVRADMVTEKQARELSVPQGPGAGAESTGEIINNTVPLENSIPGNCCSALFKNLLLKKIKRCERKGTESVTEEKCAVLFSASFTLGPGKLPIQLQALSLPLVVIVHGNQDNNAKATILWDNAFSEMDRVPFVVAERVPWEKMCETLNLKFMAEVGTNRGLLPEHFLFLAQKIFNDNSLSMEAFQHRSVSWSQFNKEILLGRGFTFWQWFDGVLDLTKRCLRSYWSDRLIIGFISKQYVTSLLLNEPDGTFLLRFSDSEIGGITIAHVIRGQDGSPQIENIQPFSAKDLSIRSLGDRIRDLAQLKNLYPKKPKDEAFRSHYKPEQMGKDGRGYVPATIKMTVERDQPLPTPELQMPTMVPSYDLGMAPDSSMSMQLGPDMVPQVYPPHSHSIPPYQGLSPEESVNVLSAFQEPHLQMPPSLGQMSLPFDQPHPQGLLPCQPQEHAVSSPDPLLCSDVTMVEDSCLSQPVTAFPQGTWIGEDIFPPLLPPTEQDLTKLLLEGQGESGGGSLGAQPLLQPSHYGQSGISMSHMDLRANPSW

[3] = molecular target: T3, Signal transducer and activator of transcription 5A (Homo sapiens, UniProt P42229); test: Binding affinity to STAT5A (unknown origin) assessed as inhibition constant incubated for 1 hr by fluorescence polarization assay
T3 sequence (P42229 whole entry): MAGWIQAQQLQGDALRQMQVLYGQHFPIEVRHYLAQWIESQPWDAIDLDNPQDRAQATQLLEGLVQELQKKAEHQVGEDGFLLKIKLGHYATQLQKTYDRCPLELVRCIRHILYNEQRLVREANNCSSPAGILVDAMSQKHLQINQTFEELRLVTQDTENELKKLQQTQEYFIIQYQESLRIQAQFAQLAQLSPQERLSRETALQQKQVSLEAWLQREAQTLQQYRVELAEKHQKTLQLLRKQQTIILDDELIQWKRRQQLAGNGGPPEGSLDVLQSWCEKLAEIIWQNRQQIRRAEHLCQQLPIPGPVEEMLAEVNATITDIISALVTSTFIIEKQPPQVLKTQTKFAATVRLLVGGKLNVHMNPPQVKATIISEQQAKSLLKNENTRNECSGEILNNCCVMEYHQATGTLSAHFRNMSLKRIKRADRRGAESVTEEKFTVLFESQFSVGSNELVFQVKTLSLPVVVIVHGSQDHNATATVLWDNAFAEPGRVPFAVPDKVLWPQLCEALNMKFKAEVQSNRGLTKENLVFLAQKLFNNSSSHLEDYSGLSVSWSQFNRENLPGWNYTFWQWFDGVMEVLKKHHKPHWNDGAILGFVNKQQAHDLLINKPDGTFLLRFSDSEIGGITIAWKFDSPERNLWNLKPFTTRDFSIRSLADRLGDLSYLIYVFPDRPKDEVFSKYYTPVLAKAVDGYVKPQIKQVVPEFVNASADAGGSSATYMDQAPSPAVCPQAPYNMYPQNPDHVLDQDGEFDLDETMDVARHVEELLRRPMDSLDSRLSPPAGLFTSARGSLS

[4] = molecular target: T4, Protein cereblon/Signal transducer and activator of transcription 6 (Homo sapiens, UniProt P42226+Q96SW2); test: PROTAC activity at STAT6/CRBN in human L-1236 cells assessed as reduction in STAT6 level at 10 uM incubated for 24 hrs by Western blot analysis; assay type: cell-based
[5] = molecular target: Protein cereblon/Signal transducer and activator of transcription 2 (Homo sapiens) (UniProt Q96SW2+P52630); test: PROTAC activity at STAT2/CRBN in human PBMC cells assessed as reduction in STAT2 level at 10 uM incubated for 18 hrs by Western blot analysis relative to control; assay type: cell-based
[6] = molecular target: T4, Protein cereblon/Signal transducer and activator of transcription 6; test: PROTAC activity at STAT6 at Y641 residue/CRBN in human L-1236 cells assessed as reduction in STAT6 level at 10 uM incubated for 24 hrs by Western blot analysis; assay type: cell-based
[7] = molecular target: Protein cereblon/Signal transducer and activator of transcription 1-alpha/beta (Homo sapiens) (UniProt P42224+Q96SW2); test: PROTAC activity at STAT1/CRBN in human PBMC cells assessed as reduction in STAT1 level at 10 uM incubated for 18 hrs by Western blot analysis relative to control; assay type: cell-based
[8] = molecular target: Protein cereblon/Signal transducer and activator of transcription 3 (Homo sapiens) (UniProt P40763+Q96SW2); test: PROTAC activity at STAT3/CRBN in human PBMC cells assessed as reduction in STAT3 level at 10 uM incubated for 18 hrs by Western blot analysis relative to control; assay type: cell-based
[9] = molecular target: Protein cereblon/Signal transducer and activator of transcription 5A/Signal transducer and activator of transcription 5B (Homo sapiens) (UniProt P42229+P51692+Q96SW2); test: PROTAC activity at STAT5/CRBN in human PBMC cells assessed as reduction in STAT5 level at 10 uM incubated for 18 hrs by Western blot analysis relative to control; assay type: cell-based
[10] = molecular target: T4, Protein cereblon/Signal transducer and activator of transcription 6; test: PROTAC activity at STAT6/CRBN in human MV4-11 cells assessed as reduction in STAT6 level at upto 10 uM incubated for 12 hrs by Western blot analysis; assay type: cell-based
[11] = molecular target: Protein cereblon/Signal transducer and activator of transcription 4 (Homo sapiens) (UniProt Q96SW2+Q14765); test: PROTAC activity at STAT4/CRBN in human PBMC cells assessed as reduction in STAT4 level at 10 uM incubated for 18 hrs by Western blot analysis relative to control; assay type: cell-based
[12] = molecular target: T4, Protein cereblon/Signal transducer and activator of transcription 6; test: PROTAC activity at STAT6/CRBN in human MV4-11 cells assessed as reduction in STAT6 level at 0.5 uM measured upto 1200 mins by HiBiT bioluminescence assay; assay type: cell-based

Ki [1] [nM] | Ki [2] [nM] | Ki [3] [nM] | Structure (SMILES) | other results
1800 | 80 | 1400 | CC(C)(C)[C@H](NC(=O)c1cc2cc(C(F)(F)P(=O)(O)O)ccc2s1)C(=O)N1CCC[C@H]1C(=O)N1CCSC(c2ccccc2)C1 (stereo partly specified) | –
4400 | 220 | > 5000 | CC(C)(C)[C@H](NC(=O)c1cc2cc(C(F)(F)P(=O)(O)O)ccc2s1)C(=O)N1CCC[C@H]1C(=O)N1CCOC(c2ccc(F)cc2)C1 (stereo partly specified) | –
2400 | 110 | > 5000 | CC(C)(C)[C@H](NC(=O)c1cc2cc(C(F)(F)P(=O)(O)O)ccc2s1)C(=O)N1CCC[C@H]1C(=O)N1CCOC(c2ccccc2F)C1 (stereo partly specified) | –
> 5000 | 1300 | > 5000 | CC(C)(C)[C@H](NC(=O)c1cc2cc(C(F)(F)P(=O)(O)O)ccc2s1)C(=O)N1CCC[C@H]1C(=O)N1CCOC(Cc2ccccc2)C1 (stereo partly specified) | –
> 5000 | 1100 | > 5000 | CC(C)(C)[C@H](NC(=O)c1cc2cc(C(F)(F)P(=O)(O)O)ccc2s1)C(=O)N1CCC[C@H]1C(=O)N1CCOC(c2ccncc2)C1 (stereo partly specified) | –
200 | 500 | 1800 | CC(C)(C)[C@H](NC(=O)c1cc2cc(C(F)(F)P(=O)(O)O)ccc2s1)C(=O)N1CCC[C@H]1C(=O)N1CCOC(C2CCCCC2)C1 (stereo partly specified) | –
> 5000 | 310 | > 5000 | CC(C)(C)[C@H](NC(=O)c1cc2cc(C(F)(F)P(=O)(O)O)ccc2s1)C(=O)N1CCC[C@H]1C(=O)N1CCOC(c2cccnc2)C1 (stereo partly specified) | –
> 5000 | 420 | > 5000 | CC(C)(C)[C@H](NC(=O)c1cc2cc(C(F)(F)P(=O)(O)O)ccc2s1)C(=O)N1CCC[C@H]1C(=O)N1CCOC(c2ccc(F)cc2F)C1 (stereo partly specified) | –
– | – | – | CN1C(=O)CCC(N2Cc3c(C#CCCCCCO[C@H]4C[C@@H](C(=O)N5CCO[C@H](c6ccccc6)C5)N(C(=O)[C@@H](NC(=O)c5cc6cc(C(F)(F)P(=O)(O)O)ccc6s5)C(C)(C)C)C4)cccc3C2=O)C1=O (stereo partly specified) | Activity [4]: No effect; Activity [5]: No effect; Activity [6]: No effect; Activity [7]: No effect; Activity [8]: No effect; Activity [9]: No effect; Activity [10]: inactive; Activity [11]: No effect
800 | 83 | 1400 | CC(C)(C)[C@H](NC(=O)c1cc2cc(C(F)(F)P(=O)(O)O)ccc2s1)C(=O)N1CCC[C@H]1C(=O)N1CCOC(c2ccc3ccccc3c2)C1 (stereo partly specified) | –
– | – | – | NS(=O)(=O)OC[C@@H]1C[C@@H](n2ccc3c(N[C@H]4CCc5ccccc54)ncnc32)C[C@@H]1O | Activity [12]: No effect
